# Reference: ChEMBL document CHEMBL1201862, “PubChem BioAssay data set” (2004)
# The source made the active and inactive calls.
# Legend:
# Cytochrome P450 2C9 = Cytochrome P450 2C9 (Homo sapiens, UniProt P11712)
# Cytochrome P450 1A2 = molecular target: T1, Cytochrome P450 1A2 (Homo sapiens, UniProt P05177);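 further: PubChem cytochrome P450 panel assay, CYP1A2 panel member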
# T1 sequence (P05177 whole entry): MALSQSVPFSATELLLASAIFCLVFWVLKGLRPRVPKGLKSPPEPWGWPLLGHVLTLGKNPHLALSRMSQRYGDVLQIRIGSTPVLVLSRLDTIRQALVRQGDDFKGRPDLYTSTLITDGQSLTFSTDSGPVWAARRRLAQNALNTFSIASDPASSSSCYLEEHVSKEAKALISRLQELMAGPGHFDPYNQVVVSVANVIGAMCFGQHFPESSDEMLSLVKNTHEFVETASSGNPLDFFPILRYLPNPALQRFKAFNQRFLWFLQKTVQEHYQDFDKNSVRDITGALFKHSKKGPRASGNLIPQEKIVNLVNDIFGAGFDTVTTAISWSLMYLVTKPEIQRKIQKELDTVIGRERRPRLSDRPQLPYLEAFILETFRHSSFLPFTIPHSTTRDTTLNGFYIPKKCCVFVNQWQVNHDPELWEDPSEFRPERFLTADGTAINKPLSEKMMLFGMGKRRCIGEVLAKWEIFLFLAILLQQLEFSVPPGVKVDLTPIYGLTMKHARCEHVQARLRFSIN
# [1] = cytotoxicity in HEK-293T cells, dose response, cytotoxicity control for TCR NF-kB inhibitor project, luminescence, T-cell screen hits (AID 489026); assay type: functional, cell-based;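 further: cells exposed to compound about 14 hours before the viability readout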
# [2] = molecular target: T2, Calpain-2 catalytic subunit (Sus scrofa, UniProt P43367); assay: pig calpain II inhibitor potency, dose response, biochemical, fluorogenic peptide substrate (AID 1420); assay type: functional
# T2 sequence (P43367 whole entry): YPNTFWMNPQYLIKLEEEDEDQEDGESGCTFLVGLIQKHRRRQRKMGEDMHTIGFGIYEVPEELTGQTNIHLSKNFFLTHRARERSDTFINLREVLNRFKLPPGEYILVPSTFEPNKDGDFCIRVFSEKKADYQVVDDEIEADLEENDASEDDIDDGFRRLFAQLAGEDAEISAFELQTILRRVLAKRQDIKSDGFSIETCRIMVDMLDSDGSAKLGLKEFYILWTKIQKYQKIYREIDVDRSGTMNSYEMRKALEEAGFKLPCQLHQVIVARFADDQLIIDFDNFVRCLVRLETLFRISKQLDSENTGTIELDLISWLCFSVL
# INS1 = assay: beta cell apoptosis inhibitors, cytokine rescue, dose response, luminescence, retest (AID 449756); assay type: functional, cell-based; conditions: Rattus norvegicus, INS1;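 further: cell death triggered by IL-1 beta plus TNF-alpha plus IFN-gamma mixture; protective hits raise ATP signal compared with cytokine alone wells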
# [3] = molecular target: T3, Mannose-6-phosphate isomerase (Homo sapiens, UniProt P34949); assay: human PMI inhibitors, high substrate, primary screen, biochemical, fluorescence intensity, high mannose 6-phosphate (AID 1220)
# T3 sequence (P34949 whole entry): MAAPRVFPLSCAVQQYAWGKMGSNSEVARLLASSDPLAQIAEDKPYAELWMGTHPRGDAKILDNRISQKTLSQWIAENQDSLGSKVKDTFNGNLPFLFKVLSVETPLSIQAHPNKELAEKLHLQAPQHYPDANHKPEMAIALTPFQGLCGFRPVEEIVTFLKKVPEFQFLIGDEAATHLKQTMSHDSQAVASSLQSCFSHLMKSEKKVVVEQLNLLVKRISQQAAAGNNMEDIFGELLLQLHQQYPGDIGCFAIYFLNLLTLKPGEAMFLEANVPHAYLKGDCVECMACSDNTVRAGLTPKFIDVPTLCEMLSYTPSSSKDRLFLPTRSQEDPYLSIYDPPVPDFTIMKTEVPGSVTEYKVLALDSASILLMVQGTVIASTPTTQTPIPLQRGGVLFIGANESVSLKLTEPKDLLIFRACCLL
# [4] = molecular target: Luciferin 4-monooxygenase (Photinus pyralis, UniProt P08659); assay: firefly luciferase enzyme inhibitors, dose response, biochemical, luminescence (AID 1891)
# Sequence of Luciferin 4-monooxygenase (P08659 whole entry): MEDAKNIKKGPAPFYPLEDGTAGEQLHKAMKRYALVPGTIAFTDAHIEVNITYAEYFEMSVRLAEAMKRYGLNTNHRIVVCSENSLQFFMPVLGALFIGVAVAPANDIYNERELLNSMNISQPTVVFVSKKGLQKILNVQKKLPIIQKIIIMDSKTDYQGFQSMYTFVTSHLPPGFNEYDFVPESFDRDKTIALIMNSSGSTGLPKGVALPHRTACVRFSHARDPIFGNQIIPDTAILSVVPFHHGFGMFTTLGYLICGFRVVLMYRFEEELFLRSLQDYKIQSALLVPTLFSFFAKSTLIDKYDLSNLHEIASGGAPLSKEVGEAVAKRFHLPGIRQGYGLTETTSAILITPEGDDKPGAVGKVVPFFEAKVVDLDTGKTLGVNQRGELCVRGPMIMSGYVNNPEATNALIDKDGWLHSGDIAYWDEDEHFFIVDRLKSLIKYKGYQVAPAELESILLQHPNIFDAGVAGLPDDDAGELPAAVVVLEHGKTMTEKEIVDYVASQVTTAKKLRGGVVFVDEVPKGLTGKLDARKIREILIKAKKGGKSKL
# [5] = Luminescence Cell-Based Dose Confirmation HTS to Identify Inhibitors of Platelet Dense Granule Release. [Related pubchem assays: 1663 (Primary HTS), 1678 (Summary of Project)]; assay type: functional
# [6] = molecular target: T4, Rac GTPase-activating protein 1 (Homo sapiens, UniProt Q9H0H5); assay: MgcRacGAP GTPase-activating activity inhibitors, confirmation, biochemical, ADP Hunter fluorescence, primary and confirmatory (AID 624330); assay type: functional
# T4 sequence (Q9H0H5 whole entry): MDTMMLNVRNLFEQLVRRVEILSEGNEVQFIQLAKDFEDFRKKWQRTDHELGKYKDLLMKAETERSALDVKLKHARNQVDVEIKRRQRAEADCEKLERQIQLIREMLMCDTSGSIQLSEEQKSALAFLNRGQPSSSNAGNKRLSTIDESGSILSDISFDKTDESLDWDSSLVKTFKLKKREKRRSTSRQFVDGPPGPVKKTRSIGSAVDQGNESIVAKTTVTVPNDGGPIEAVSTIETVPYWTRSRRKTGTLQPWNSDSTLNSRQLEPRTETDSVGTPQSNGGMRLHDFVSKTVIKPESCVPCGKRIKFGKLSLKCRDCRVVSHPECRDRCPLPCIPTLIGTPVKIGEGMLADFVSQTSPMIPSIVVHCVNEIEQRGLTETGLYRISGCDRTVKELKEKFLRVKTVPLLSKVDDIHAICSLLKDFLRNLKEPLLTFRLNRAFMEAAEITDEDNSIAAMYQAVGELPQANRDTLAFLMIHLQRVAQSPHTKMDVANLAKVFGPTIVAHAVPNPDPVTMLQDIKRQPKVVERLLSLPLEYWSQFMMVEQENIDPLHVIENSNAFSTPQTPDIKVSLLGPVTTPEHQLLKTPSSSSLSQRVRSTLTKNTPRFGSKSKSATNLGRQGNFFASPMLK
# Cytochrome P450 3A4 = Cytochrome P450 3A4 (Homo sapiens, UniProt P08684);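 further: CYP3A4 tested as one member of a cytochrome P450 panel screen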
# Sequence of Cytochrome P450 3A4 (P08684 whole entry): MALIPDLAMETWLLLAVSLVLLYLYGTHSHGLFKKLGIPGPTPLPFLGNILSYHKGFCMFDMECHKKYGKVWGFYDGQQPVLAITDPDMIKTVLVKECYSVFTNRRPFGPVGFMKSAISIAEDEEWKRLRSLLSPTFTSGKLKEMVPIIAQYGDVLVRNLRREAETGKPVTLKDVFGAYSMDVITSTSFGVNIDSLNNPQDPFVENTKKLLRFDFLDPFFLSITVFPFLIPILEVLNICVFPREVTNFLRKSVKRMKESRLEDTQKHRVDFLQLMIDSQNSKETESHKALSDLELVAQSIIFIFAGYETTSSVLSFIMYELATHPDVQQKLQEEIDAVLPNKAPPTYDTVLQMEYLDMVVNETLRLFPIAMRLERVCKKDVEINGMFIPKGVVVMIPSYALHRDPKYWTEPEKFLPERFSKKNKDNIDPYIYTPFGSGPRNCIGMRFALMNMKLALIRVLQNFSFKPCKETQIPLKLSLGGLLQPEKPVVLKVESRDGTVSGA
# Cytochrome P450 2C19 = Cytochrome P450 2C19 (Homo sapiens, UniProt P33261); assay: Cytochrome panel assay with activity outcomes. Panel member name: p450-cyp2c19 Compounds with AC50 equal or less than 10 uM are considered active; assay type: functional; conditions: read-out: AC50
# Sequence of Cytochrome P450 2C19 (P33261 whole entry): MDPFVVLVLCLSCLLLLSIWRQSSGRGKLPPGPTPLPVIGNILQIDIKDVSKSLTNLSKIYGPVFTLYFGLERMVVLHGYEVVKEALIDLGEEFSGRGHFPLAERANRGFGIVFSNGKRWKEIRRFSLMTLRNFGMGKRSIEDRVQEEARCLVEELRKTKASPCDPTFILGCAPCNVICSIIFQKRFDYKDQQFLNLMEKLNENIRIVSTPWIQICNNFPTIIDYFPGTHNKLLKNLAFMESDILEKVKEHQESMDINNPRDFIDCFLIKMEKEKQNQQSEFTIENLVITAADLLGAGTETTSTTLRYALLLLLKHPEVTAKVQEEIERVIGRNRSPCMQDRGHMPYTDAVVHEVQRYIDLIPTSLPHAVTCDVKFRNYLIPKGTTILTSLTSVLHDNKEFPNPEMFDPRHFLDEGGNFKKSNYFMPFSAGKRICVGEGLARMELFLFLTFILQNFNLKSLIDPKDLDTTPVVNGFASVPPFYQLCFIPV
# [7] = molecular target: FAD-linked sulfhydryl oxidase ALR (Homo sapiens, UniProt P55789); assay: inhibitors of human ALR sulfhydryl oxidase, dose response, biochemical, H2O2 detection, luminescence, cherry-pick (AID 493248)
# Sequence of FAD-linked sulfhydryl oxidase ALR (P55789 whole entry): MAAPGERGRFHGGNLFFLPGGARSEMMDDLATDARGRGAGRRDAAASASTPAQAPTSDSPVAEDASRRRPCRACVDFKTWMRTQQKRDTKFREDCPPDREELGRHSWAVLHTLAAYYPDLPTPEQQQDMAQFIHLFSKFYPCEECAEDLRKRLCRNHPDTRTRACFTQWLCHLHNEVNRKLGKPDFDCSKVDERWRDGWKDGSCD
# [8] = growth suppression of PTEN-null colon cells, dose response, cell-based, HCT116 PTEN knockout (AID 1047); assay type: functional;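 further: HCT116 colon tumor cells with PTEN knocked out; cells exposed to compound for 60 hours before readout; potency for loss of cell viability measured by luminescence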
# [9] = growth suppression of beta-catenin-knockout colon cells, dose response, cell-based, HCT116, human colon tumor (AID 1045); assay type: functional;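 further: HCT116 colon tumor cells with beta catenin knocked out; cells exposed to compound for 60 hours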
# Cytochrome P450 2D6 = Cytochrome P450 2D6 (Homo sapiens, UniProt P10635);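 further: CYP2D6 member of a cytochrome P450 panel assay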
# Sequence of Cytochrome P450 2D6 (P10635 whole entry): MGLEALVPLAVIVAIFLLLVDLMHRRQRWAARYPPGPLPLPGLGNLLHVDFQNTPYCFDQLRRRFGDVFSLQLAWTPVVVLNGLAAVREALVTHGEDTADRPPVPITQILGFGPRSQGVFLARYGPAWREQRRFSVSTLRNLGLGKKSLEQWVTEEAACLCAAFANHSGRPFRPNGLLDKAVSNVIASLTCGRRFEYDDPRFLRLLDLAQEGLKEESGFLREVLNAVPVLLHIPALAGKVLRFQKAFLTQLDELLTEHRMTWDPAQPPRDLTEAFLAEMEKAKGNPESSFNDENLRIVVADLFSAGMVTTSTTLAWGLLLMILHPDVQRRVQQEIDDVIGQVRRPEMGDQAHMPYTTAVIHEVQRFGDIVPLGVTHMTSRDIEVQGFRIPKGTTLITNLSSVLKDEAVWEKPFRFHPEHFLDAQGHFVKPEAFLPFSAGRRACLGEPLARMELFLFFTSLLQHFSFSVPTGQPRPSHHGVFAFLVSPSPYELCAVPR
# [10] = Luminescence Cell-Based Dose Response HTS to Identify Inhibitors of 5'UTR Stem-Loop Driven Prion Protein mRNA Translation in H4 Neuroglioblastoma Cells. [Related pubchem assays: 1827 (Project Summary), 1813 (Primary HTS)]; assay type: functional
# [11] = inhibitors of SNCA 5'UTR-driven reporter translation, confirmation, H4 neuroglioma cells, luminescence (AID 1988); assay type: functional, cell-based
# [12] = inhibitors of firefly luciferase expression or activity, dose response, H4 neuroglioma cells, luminescence (AID 1990); assay type: functional, cell-based
# [13] = molecular target: T5, Corticotropin-releasing factor receptor 2/Corticotropin-releasing factor-binding protein (Homo sapiens, UniProt P24387+Q13324); assay: activators of CRF receptor 2 with binding protein – uHTS hits, confirmation (AID 602473); assay type: functional; conditions: read-out: EC50_Mean
# T5 sequence (Q13324 whole entry): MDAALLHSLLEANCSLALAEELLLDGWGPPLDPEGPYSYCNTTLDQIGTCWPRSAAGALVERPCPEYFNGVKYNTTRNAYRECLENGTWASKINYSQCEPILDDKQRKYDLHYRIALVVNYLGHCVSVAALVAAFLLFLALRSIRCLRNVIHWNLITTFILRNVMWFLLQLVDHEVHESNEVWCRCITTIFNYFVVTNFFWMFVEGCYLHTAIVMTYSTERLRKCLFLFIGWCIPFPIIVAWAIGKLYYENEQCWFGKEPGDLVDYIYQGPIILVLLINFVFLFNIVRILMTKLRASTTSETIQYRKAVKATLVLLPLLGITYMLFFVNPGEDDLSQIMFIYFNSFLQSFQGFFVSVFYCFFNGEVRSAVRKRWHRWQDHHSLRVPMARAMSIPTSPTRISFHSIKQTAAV
# T5 sequence (P24387 whole entry): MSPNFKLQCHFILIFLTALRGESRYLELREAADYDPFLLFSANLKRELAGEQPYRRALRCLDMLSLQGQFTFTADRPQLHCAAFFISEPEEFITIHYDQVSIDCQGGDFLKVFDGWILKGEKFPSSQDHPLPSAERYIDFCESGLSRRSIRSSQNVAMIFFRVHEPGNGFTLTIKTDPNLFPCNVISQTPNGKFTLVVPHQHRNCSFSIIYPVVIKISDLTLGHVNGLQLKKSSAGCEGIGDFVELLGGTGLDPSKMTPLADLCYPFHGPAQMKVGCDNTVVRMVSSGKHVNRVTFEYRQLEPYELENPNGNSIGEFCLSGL
# [14] = molecular target: T5, Corticotropin-releasing factor receptor 2/Corticotropin-releasing factor-binding protein; assay: Dose Response confirmation of uHTS hits for small molecule antagonists of the CRF-binding protein and CRF-R2 receptor complex.; assay type: functional; conditions: read-out: IC50_Mean
# Paired box protein Pax-8 = Paired box protein Pax-8 (Homo sapiens, UniProt Q06710); assay: inhibitors of PAX8-driven TPO luciferase reporter, dose response, RMG-I cells, cherry-pick (AID 687027); assay type: functional, cell-based;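 further: luciferase reporter driven by Pax8 target thyroperoxidase promoter measured by SteadyGlo luminescence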
# Sequence of Paired box protein Pax-8 (Q06710 whole entry): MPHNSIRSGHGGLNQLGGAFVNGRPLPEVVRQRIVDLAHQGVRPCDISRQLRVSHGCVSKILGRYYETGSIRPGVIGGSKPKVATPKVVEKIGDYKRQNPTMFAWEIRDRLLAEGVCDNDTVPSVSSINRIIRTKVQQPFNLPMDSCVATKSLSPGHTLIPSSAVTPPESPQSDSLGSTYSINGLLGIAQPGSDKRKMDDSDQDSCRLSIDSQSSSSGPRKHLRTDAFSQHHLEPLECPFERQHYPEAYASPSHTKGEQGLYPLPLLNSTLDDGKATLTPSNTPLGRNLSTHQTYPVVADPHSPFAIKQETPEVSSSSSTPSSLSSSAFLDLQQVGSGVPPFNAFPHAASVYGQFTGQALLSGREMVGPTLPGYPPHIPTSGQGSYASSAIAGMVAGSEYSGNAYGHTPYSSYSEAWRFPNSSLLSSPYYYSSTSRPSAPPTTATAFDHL
# Sequence of Cytochrome P450 2C9 (P11712 whole entry): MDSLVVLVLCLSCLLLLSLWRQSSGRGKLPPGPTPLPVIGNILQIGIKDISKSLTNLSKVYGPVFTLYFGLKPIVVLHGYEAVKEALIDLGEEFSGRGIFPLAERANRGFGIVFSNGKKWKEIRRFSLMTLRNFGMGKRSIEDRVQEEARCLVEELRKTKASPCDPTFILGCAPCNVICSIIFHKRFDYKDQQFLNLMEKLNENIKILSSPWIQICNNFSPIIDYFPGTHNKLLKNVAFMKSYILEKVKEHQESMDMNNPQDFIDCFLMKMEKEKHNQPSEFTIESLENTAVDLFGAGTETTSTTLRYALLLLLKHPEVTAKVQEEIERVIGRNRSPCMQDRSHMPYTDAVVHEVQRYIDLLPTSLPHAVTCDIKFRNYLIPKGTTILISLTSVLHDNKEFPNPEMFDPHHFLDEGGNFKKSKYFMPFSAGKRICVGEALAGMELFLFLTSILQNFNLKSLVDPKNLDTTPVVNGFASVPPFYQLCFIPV
compound,measurement,setting,value
CNc1nc(C)cc(C)c1S(=O)(=O)c1ccc(Cl)cc1,AC50,Cytochrome P450 2C9,inconclusive
same,AC50,Cytochrome P450 1A2,28.2 µM (inconclusive)
CC(C)Nc1ccc(C(CC(N)=O)NC(=O)Cc2ccc(Br)cc2)cc1[N+](=O)[O-] (centres undefined),IC50,[1],> 80 µM (inactive)
CCCCOc1ccc(C(=O)OC(C)CN(C)C)cc1 (centres undefined),IC50,[2],> 50 µM (not active)
COc1ccc(C(=O)N2CCN(c3ccc([N+](=O)[O-])c(NCCc4ccc(OC)c(OC)c4)c3)CC2)cc1,IC50,[1],> 80 µM (inactive)
same,AC50,INS1,2.53 µM (active)
CN(C(=S)Nc1ccc(Oc2ccccc2)cc1)c1ccc(O)cc1,IC50,[3],> 50 µM (not active)
Cc1ccc(NCCC(=O)c2cccc([N+](=O)[O-])c2)c(C)c1,IC50,[3],> 50 µM (not active)
CCOc1cc(CNc2ccc3[nH]c(O)nc3c2)ccc1OCC(=O)NC(C)(C)C,EC50,[4],> 112 µM (not active)
same,IC50,[3],> 50 µM (not active)
same,EC50,[5],12 µM (active)
same,IC50,[6],60.2 µM (active)
Cc1cccc(C(=O)ON=C(N)c2cccc([N+](=O)[O-])c2)c1,AC50,Cytochrome P450 3A4,17.8 µM (inconclusive)
same,AC50,Cytochrome P450 2C9,inconclusive
same,AC50,Cytochrome P450 2C19,7.08 µM (inconclusive)
CCSc1nnc(NC(=O)c2cccs2)s1,IC50,[2],15 µM (not active)
Oc1ccc(N2CCN(c3nnnn3-c3ccccc3)CC2)cc1,AC50,[7],1.9 µM (active)
COc1ccc(N2C(=O)CSC2c2ccccc2)cc1 (centres undefined),AC50,[7],1.9 µM (active)
CCOC(=O)N1CCN(C(=O)c2ccc(NS(C)(=O)=O)cc2)CC1,IC50,[2],> 50 µM (not active)
CC(=O)N1CCN(S(=O)(=O)c2cccc(C(=O)Nc3ccccc3N3CCCC3)c2)CC1,AC50,[7],3.27 µM (active)
CCCCC(=O)N/N=C(\C)CC(=O)Nc1cc(Cl)ccc1OC,AC50,Cytochrome P450 2C9,inconclusive
same,AC50,Cytochrome P450 1A2,12.6 µM (inconclusive)
CCOc1cc(/C=N/n2cnnc2)ccc1OS(=O)(=O)c1ccccc1,IC50,[2],> 50 µM (not active)
CCN1CCN(c2cc(C)c3cc(NC(=O)c4cncc(Br)c4)ccc3n2)CC1,EC50,[8],16.2 µM (active)
same,EC50,[9],13.9 µM (active)
CCN(CC)c1ccc(/C=N/Nc2nc(C)cc(O)n2)cc1,AC50,[7],0.456 µM (active)
same,AC50,Cytochrome P450 2C9,inconclusive
same,AC50,Cytochrome P450 1A2,25.1 µM (inconclusive)
same,AC50,Cytochrome P450 2D6,12.6 µM (inconclusive)
same,AC50,Cytochrome P450 2C19,22.4 µM (inconclusive)
Cc1[nH]c2ccc(-c3nnc(S)n3C)cc2c1C,AC50,[7],0.664 µM (active)
same,EC50,[10],19.2 µM (active)
same,EC50,[11],14 µM (active)
same,EC50,[12],8.15 µM (active)
NNC(=O)Cc1cccnc1,AC50,Cytochrome P450 2C9,inconclusive
same,AC50,Cytochrome P450 1A2,0.631 µM (inconclusive)
COc1ccc2c(c1)-c1nc(/N=C/c3ccc(O)cc3)sc1CC2,EC50,[13],> 53 µM (inactive)
same,IC50,[3],> 50 µM (not active)
same,IC50,[14],> 47.1 µM (inactive)
Cc1cc(C)cc(C(=N)c2ccccc2Cc2cccc3ccccc23)c1,AC50,Cytochrome P450 3A4,2.51 µM (inconclusive)
same,AC50,Cytochrome P450 2C9,inconclusive
CCSc1nnc(NC(=O)c2cccc(S(=O)(=O)N(C)c3ccc(C)cc3)c2)s1,AC50,[7],1.12 µM (active)
CCc1ccc(N2C(=O)C(Cl)=C(Nc3ccc(C(=O)N4CCCC4)cc3)C2=O)cc1,IC50,[1],> 80 µM (inactive)
C[S+]([O-])c1ccccc1-c1nc(-c2cccc(Cl)c2)no1 (centres undefined),IC50,[2],> 50 µM (not active)
COc1ccccc1-c1cc(NCc2ccccc2)ncn1,AC50,Cytochrome P450 2C9,inconclusive
O=C(COc1ccc(F)cc1)NN1C(=O)CSC1=S,IC50,[2],1.42 µM (not active)
COc1cc(Cn2c(-c3nonc3N)nc3ccccc32)ccc1C,IC50,[1],> 80 µM (inactive)
same,EC50,[10],10.3 µM (active)
same,EC50,[11],7.81 µM (active)
same,EC50,[12],9.66 µM (inconclusive)
Cc1ccc(C)c2sc(NC(=O)c3ccc(N4CCCCC4)c([N+](=O)[O-])c3)nc12,AC50,Cytochrome P450 3A4,3.98 µM (inconclusive)
same,AC50,Cytochrome P450 2C9,inconclusive
COC(=O)CNC(=O)c1sc2ncn(CC(=O)Nc3ccc(C)c(Cl)c3)c(=O)c2c1C,IC50,[2],1.82 µM (not active)
CN(N=Nc1[nH]cnc1C(N)=O)C1CCCCC1,AC50,Paired box protein Pax-8,6.78 µM (active)
